Laboratory results taken from patent US4673678A, “Water soluble derivatives of fredericamycin A” (The United States of America as represented by the …, priority 1986, dated 1987).
Counter-ions that a name gives are not always drawn. Like-named read-outs stand apart in the source and are kept apart here.

Key:
solubility [1] = format: physicochemical; conditions: for solubility: water
Protocol: The potassium salt of fredericamycin A (NSC #601617) is soluble in water with hand shaking for 1 minute, followed by vortexing for 3 minutes. The solubility is about 1.0 mg/ml and gives a transparent blue solution, pH 8.65 with no residue upon membrane filtration (0.22μ, HA, Millipore Products).
Fredericamycin A (15 mg, 0.0278 mmols) is treated with NaOH solution, 1:3 mols (7.65 mls; 0.0109N, degased previously and cooled to 0° C.) in pyridine solution at 0° C. (2.5 ml, degased) under N2 atmosphere. Reaction is carried out by stirring magnetically for 60 minutes under N2 atmosphere. (40 minutes at 0° C. and 20 minutes at 15° C.). The progress of reaction is followed by TLC, HPLC (of hydrolysed product of the Rx mixture) and UV. The resultant blue-green clear reaction mixture is frozen (-70° C.) and lyophilized (48 hrs) until a solid is obtained. […] It is soluble in water (0.5 mg/ml) with hand shake and sonication (15 minutes). […] TLC and HPLC (after hydrolysis) show single spot and single peak respectively showing that the product is pure.
The first indication of the salt formation is observed by solubility studies in water.

[2] = system: P388 ascites murine leukemia; test: in vitro cytotoxicity, Microculture Tetrazolium Assay (MTA), P388; format: cell-based; conditions: P388, 5 days culture, FIG. 5
Source text: The assay used for determining in vitro cytotoxic activity of alkali metal salt of FMA is known as "Microculture Tetrazolium Assay" (MTA) developed by the in vitro Cancer Pharmacology R & D Laboratory at NCI-FCRF. The method utilized is a modification of Procedure by T. Mosmann et al., (J. Immunol. Meth. 65:55, 1983 and 70:257, 1984) described by M. C. Alley et al (Proc. AACR. 27:389, 1986). The testing of alkali metal salt of FMA is done using P388 acites murine leukemia as the test system at a inoculation density of about 1000 cells per well and culture duration of 5 days, with various concentration levels of alkali metal salt of FMA vs fredericamycin A. The concentration range could be from 0.1 μg to 10 μg per ml. The results are recorded as percent of control O.D. for each sample dilution.

[3] = system: fungi (Penicillium notatum); test: antimicrobial activity, disc method, fungi; format: cell-based; conditions: concentration 0.025 to 5 μg/ml
Protocol: (§1) Protocol for determining antimicrobial activity against Bacillus subtilis and Penicillium notatum
(§2) These were performed by Disc method, using standard assay procedures and the respective microorganism in each case. 15 μl of each sample in DMSO-H H2 O (1:1) is pipetted on to separate 0.25" absorbent paper disc and the assay is performed following routine techniques well known in the art. Zone sizes are read after incubation overnight (Bacillus subtilis) and after 4 days of incubation (Penicillium notatum) at various concentrations.

[4] = system: gram positive bacteria (Bacillus subtilis); test: antimicrobial activity, disc method, bacteria; format: cell-based; conditions: concentration 0.025 to 5 μg/ml
Protocol: as §1, §2

solubility [5] = format: physicochemical
stability = format: physicochemical
P388 Lymph. Leukemia = test: in vivo antitumor activity against P388 leukemia; set-up: species or system CD2F1 mice; conditions: for % T/C / % T/C: toxicity: i.p.
Protocol: The antitumor activity is determined by contracted accessary testing services according to the National Cancer Institute (NCI) guidelines for natural products (Geran et al. protocols for Screening Chemical Agents and Natural Products Against Animal Tumors and other Biological Systems. Cancer Chemother. Rep. part 3, 3:7-61, 1972; Schepartz: Antitumor Screening Procedures of the National Cancer Institute. Japan J. Antibiotics 30 (Supl): 35-40, 1977.)
Alkali metal salt of FMA is tested in vivo against P338 leukemia. The test is carried out using male CD2F1 mice (wt.=18 g±3 g) in one experiment and female mice (wt, 17 g±3.0 gm) in another experiment. […]
*T/C is the ratio expressed in percent of the median survival time of the
treated group divided by the median survival time of the control group.
NCI criteria of positive (moderate) activity in P388 Leukemia is indicate
by a T/C value of 120%. A T/C value of ≥ 175% is indicative of
**DMSO = Dimethylsulfoxide; i.p = intraperitoneal route of injection.
Potassium salt of fredericamycin A was dissolved in water only.

pH of aqueous solution = format: physicochemical
hygroscopicity = format: physicochemical
C38 colon tumor = conditions: in vivo; cited from earlier work
L1210 leukemia = conditions: in vivo; cited from earlier work
mouse leukemia L1210 = conditions: in vitro, compared with actinomycin D and adriamycin; cited from earlier work
LX-1 lung xenograft = conditions: in vivo; cited from earlier work
CD8F mouse mammary tumor = conditions: in vivo; cited from earlier work
B16 melanoma = conditions: in vivo; cited from earlier work
fungi = conditions: cited from earlier work
Gram-positive bacteria = conditions: cited from earlier work
Lewis lung carcinoma = conditions: in vivo; cited from earlier work
MX-1 breast xenograft = conditions: in vivo; cited from earlier work
P388 leukemic cells = conditions: in vivo; cited from earlier work
[6] = general; precluded further toxicological and pharmacological studies; cited from earlier work
mouse leukemia P388 = conditions: cited from earlier work
Gram-negative bacteria = conditions: cited from earlier work

What does the source list for `C/C=C/C=C/c1cc2cc3c(c(O)c2c(=O)[nH]1)C1(CC3)C(=O)c2c(O)c3c(c(O)c2C1=O)C(=O)C(OC)=CC3=O` (stereo not drawn) [KFMA, potassium salt of fredericamycin A]?
solubility (solubility [1]; Table 1): 1000 µg/mL; solubility (solubility [1]; solubility studies in water): ~1000 µg/mL; in vitro cytotoxic activity as compared to that of FMA [2]: equal or better; zone size [3]: 9.5 mm; zone size [4]: 9.5 mm; solubility in chloroform-methanol-acetic acid (87:3:3) and methanol (solubility [5]): Soluble; solubility in dimethylacetamide, dimethylformamide, pyridine (solubility [5]): Readily Soluble; solubility in ethylacetate, acetonitrile and chloroform (solubility [5]): Sparingly soluble; solubility in hexanes, ether, acetone, benzene and carbon tetra chloride (solubility [5]): Insoluble; solubility in dimethyl sulfoxide (solubility [5]; Readily Soluble): 8 mg/1.5 ml; solubility (solubility [5]; dmso-saline 5:95, organic solvent or mixture, read-out: solubility in dimethylsulfoxide-saline (5:95)): 1000 µg/mL; solubility (solubility [5]; dmso-saline 10:90, organic solvent or mixture, solution is transparent blue, read-out: solubility in dimethylsulfoxide-saline (10:90)): 1000 µg/mL; solubility (solubility [5]; dmso-water 1:1, organic solvent or mixture, Readily Soluble, read-out: solubility in dimethylsulfoxide-water (1:1)): 3000 µg/mL; solubility (solubility [5]; dmso-water 5:95, organic solvent or mixture, read-out: solubility in dimethylsulfoxide-water (5:95)): 1500 µg/mL; solubility (solubility [5]; water, hand shaking 1 minute, vortexing 3 minutes, read-out: solubility in water): ~1000 µg/mL; stability of DMSO solution (anhydrous) (stability; 0° C./dark): several days; stability of anhydrous salt (stability; anhydrous, room temp.): stable; stability of anhydrous salt, duration in words (stability; anhydrous, room temperature): stable for extended period of time; temperature safely heated to with no decomposition (stability; high vacuum, 4 hrs): up to 60 °C; hydrolysis to fredericamycin A (stability; in presence of moisture, acid): Easily hydrolysable; stability of DMSO solution (anhydrous) (stability; room temp, 4 hrs): fairly stable; storage stability (stability; sealed under nitrogen, anhydrous, amber container, 0° C. over silica gel): stable for several months; stability of aqueous solution (stability; water, about 1.0 mg/ml, room temperature): stable for almost an hour; T/C value (P388 Lymph. Leukemia; 1 mg/kg level): 178%; % T/C (P388 Lymph. Leukemia; Expt #1, 0.125 mg/kg, water): 119%; % T/C (P388 Lymph. Leukemia; Expt #1, 0.25 mg/kg, water): 119%; % T/C (P388 Lymph. Leukemia; Expt #1, 0.50 mg/kg, water): 153%; % T/C (P388 Lymph. Leukemia; Expt #1, 1.00 mg/kg, water): 178%; % T/C: toxicity (P388 Lymph. Leukemia; Expt #1, 2.00 mg/kg, water): Toxic; % T/C (P388 Lymph. Leukemia; Expt #1, .063 mg/kg, water): 110%; % T/C (P388 Lymph. Leukemia; Expt #2, 0.125 mg/kg, water): 120%; % T/C (P388 Lymph. Leukemia; Expt #2, 0.25 mg/kg, water): 132%; % T/C (P388 Lymph. Leukemia; Expt #2, 0.50 mg/kg, water): 160%; % T/C (P388 Lymph. Leukemia; Expt #2, 1.00 mg/kg, water): 175%; % T/C (P388 Lymph. Leukemia; Expt #2, .063 mg/kg, water): 112%; activity against P388 leukemia, in words (P388 Lymph. Leukemia; all experiments performed): significant activity; differences between male and female mice (P388 Lymph. Leukemia; male vs female mice): no differences observed; pH (H2O) (pH of aqueous solution; Table 1): 8.9 ± 0.2; pH of aqueous solution (pH of aqueous solution; about 1.0 mg/ml in water): 8.65

For `C/C=C/C=C/c1cc2cc3c(c(O)c2c(=O)[nH]1)C1(CC3)C(=O)c2c(O)c3c(c(O)c2C1=O)C(=O)C(OC)=CC3=O` (stereo not drawn) [Na-FMA, sodium salt of fredericamycin A], which hygroscopicity (hygroscopicity) is on record?
The hygroscopicity was “highly hygroscopic”.

What about the solubility (solubility [1]; hand shake and sonication (15 minutes)) of the same molecule?
The solubility was 500 µg/mL.

What about the “stability of aqueous solution on longer standing” value (stability; water, room temperature) of the same molecule?
Its value is “hydrolyzing back to fredericamycin A”.

And the “pH (water)” value (pH of aqueous solution; 0.5 mg/ml in water)?
Its value is 9.2±0.5.

For `C/C=C/C=C/c1cc2cc3c(c(O)c2c(=O)[nH]1)C1(CC3)C(=O)c2c(O)c3c(c(O)c2C1=O)C(=O)C(OC)=CC3=O` (stereo not drawn) [fredericamycin A], which “solubility in water, in words” value (solubility [1]) is on record?
The value was “almost insoluble”.

And the “solubility in water, in words” value (solubility [1]; listed as FMA)?
Its value is “virtually insoluble”.

And the “activity against C38 colon tumor” value (C38 colon tumor)?
Its value is “ineffective”.

What about the “activity against L1210 leukemia” value (L1210 leukemia) of the same molecule?
The value was “ineffective”.

And the “ED50 against L1210” value (mouse leukemia L1210)?
The value was “compared closely to the reported values for actinomycin D and adriamycin”.

And the “activity against LX-1 lung xenograft” value (LX-1 lung xenograft)?
The value was “ineffective”.

What about the “reducing the median tumor weight” value (CD8F mouse mammary tumor) of the same molecule?
The value was “effective”.

What about the “activity against B16 melanoma” value (B16 melanoma) of the same molecule?
Its value is “marginal activity”.

What about the activity against fungi (fungi) of the same molecule?
Its activity against fungi is “good activity”.

What about the “activity against Gram-positive bacteria” value (Gram-positive bacteria) of the same molecule?
The value was “good activity”.

What about the “activity against Lewis lung carcinoma” value (Lewis lung carcinoma) of the same molecule?
The value was “ineffective”.

What about the “activity against MX-1 breast xenograft” value (MX-1 breast xenograft) of the same molecule?
The value was “ineffective”.

And the “extending the life span of mice inoculated with P388” value (P388 leukemic cells)?
The value was “effective”.

What about the “% T/C” value (P388 Lymph. Leukemia; 0.06 mg/kg, DMSO) of the same molecule?
The value was 122%.

And the “% T/C” value (P388 Lymph. Leukemia; 0.12 mg/kg, DMSO)?
Its value is 146%.

What about the “% T/C” value (P388 Lymph. Leukemia; 0.25 mg/kg, DMSO) of the same molecule?
Its value is 134%.

And the “% T/C” value (P388 Lymph. Leukemia; 0.50 mg/kg, DMSO)?
The value was 200%.

What about the “% T/C” value (P388 Lymph. Leukemia; 1.00 mg/kg, DMSO) of the same molecule?
Its value is 160%.

What about the “% T/C: toxicity” value (P388 Lymph. Leukemia; >1.00 mg/kg, DMSO) of the same molecule?
Its value is “Toxic”.

What about the solubility [6] of the same molecule?
The solubility was “poor solubility”.

What about the cytotoxicity (mouse leukemia P388; in general, cells not specified) of the same molecule?
Its cytotoxicity is “very cytotoxic”.

What about the “ED50 against P388” value (mouse leukemia P388; in vitro, compared with actinomycin D and adriamycin) of the same molecule?
Its value is “compared closely to the reported values for actinomycin D and adriamycin”.

What about the “activity against Gram-negative bacteria” value (Gram-negative bacteria) of the same molecule?
Its value is “no activity”.
